Experimental data as given in ChEMBL document CHEMBL4808171, “Structure-Activity Relationship Study and Biological Evaluation of 2-(Disubstituted phenyl)-indole-5-propanoic Acid Derivatives as GPR40 Full Agonists” (J Med Chem, 2021).
The source made the active and inactive calls. The calls are words filed in the database; no cut-off is given here.

Legend:
[1] = target: T1, Free fatty acid receptor 1 (Homo sapiens, UniProt O14842); experiment: Agonist activity at GPR40 (unknown origin) expressed in CHO cells co-expressing luc2P/SRE (Gq) assessed as firefly luciferase activity at 10 uM incubated for 24 hrs by Bright-Glo based serum response element (SRE) luciferase reporter assay; type: functional, cell-based; conditions: filed as positive allosteric modulator
T1 sequence (O14842 whole entry): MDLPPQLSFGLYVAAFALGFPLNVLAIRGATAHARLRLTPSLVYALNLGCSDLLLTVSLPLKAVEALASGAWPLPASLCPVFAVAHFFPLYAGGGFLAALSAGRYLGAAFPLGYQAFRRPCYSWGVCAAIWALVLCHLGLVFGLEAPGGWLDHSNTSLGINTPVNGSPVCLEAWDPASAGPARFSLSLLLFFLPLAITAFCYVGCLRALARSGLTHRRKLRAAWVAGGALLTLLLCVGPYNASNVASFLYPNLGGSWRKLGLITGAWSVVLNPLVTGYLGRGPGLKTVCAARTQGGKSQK

[2] = target: T1, Free fatty acid receptor 1; experiment: Agonist activity at GPR40 (unknown origin) expressed in CHO cells assessed as increase in cAMP level incubated for 30 mins by cAMP-Glo assay; type: functional, cell-based
[3] = target: Free fatty acid receptor 1 (Mus musculus) (UniProt Q76JU9); experiment: Agonist activity at GPR40 in mouse MIN6 cells assessed as fold increase in 3 mM glucose-mediated insulin secretion at 10 uM incubated for 2 hrs by ELISA relative to control; type: functional, cell-based
Sequence of Free fatty acid receptor 1 (Mus musculus) (Q76JU9 whole entry): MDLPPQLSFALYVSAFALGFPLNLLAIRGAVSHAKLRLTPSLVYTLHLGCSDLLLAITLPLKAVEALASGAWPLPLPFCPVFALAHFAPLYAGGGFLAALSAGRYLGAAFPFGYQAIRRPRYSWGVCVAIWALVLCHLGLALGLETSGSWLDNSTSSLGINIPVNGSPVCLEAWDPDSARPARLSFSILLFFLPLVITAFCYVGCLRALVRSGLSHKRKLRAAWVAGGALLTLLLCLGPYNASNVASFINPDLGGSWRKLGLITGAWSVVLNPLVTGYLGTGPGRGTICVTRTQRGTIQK

STC1 = experiment: Induction of GLP-1 secretion in […] STC1 cells at 30 uM after 1 hrs by ELISA; type: functional, cell-based
MIN6 = experiment: Effect on BSA-PA conjugate-induced lipo-toxicity in mouse MIN6 cells assessed as caspase 3/7 activity at 50 uM incubated for 72 hrs by fluorescence assay; type: functional, cell-based
[4] = Metabolic stability in mouse liver microsomes assessed as intrinsic clearance; type: ADME, Microsome; conditions: read-out: CLH
[5] = Metabolic stability in human liver microsomes assessed as intrinsic clearance; type: ADME, Microsome; conditions: read-out: CLH
[6] = Half life in CD-1 mouse at 10 mg/kg, po measured up to 8 hrs by LC-MS/MS analysis; type: ADME, organism-based; conditions: in vivo
[7] = Half life in CD-1 mouse at 30 mg/kg, po measured up to 8 hrs by LC-MS/MS analysis; type: ADME, organism-based; conditions: in vivo
[8] = Half life in CD-1 mouse at 90 mg/kg, po measured up to 8 hrs by LC-MS/MS analysis; type: ADME, organism-based; conditions: in vivo
[9] = Tmax in CD-1 mouse at 10 mg/kg, po measured up to 8 hrs by LC-MS/MS analysis; type: ADME, organism-based; conditions: in vivo
[10] = Tmax in CD-1 mouse at 30 mg/kg, po measured up to 8 hrs by LC-MS/MS analysis; type: ADME, organism-based; conditions: in vivo
[11] = Tmax in CD-1 mouse at 100 mg/kg, po measured up to 8 hrs by LC-MS/MS analysis; type: ADME, organism-based; conditions: in vivo
[12] = Cmax in CD-1 mouse at 10 mg/kg, po measured up to 8 hrs by LC-MS/MS analysis; type: ADME, organism-based; set-up: route oral, dose 10 mg/kg, time <=8; conditions: in vivo
[13] = Cmax in CD-1 mouse at 30 mg/kg, po measured up to 8 hrs by LC-MS/MS analysis; type: ADME, organism-based; set-up: route oral, dose 30 mg/kg, time <=8; conditions: in vivo
[14] = Cmax in CD-1 mouse at 90 mg/kg, po measured up to 8 hrs by LC-MS/MS analysis; type: ADME, organism-based; set-up: route oral, dose 90 mg/kg, time <=8; conditions: in vivo
[15] = Tlast in CD-1 mouse at 30 mg/kg, po measured up to 8 hrs by LC-MS/MS analysis; type: ADME, organism-based; conditions: in vivo
[16] = Tlast in CD-1 mouse at 90 mg/kg, po measured up to 8 hrs by LC-MS/MS analysis; type: ADME, organism-based; conditions: in vivo
[17] = Clast in CD-1 mouse at 10 mg/kg, po measured up to 8 hrs by LC-MS/MS analysis; type: ADME, organism-based; conditions: in vivo, read-out: Clast
[18] = Clast in CD-1 mouse at 30 mg/kg, po measured up to 8 hrs by LC-MS/MS analysis; type: ADME, organism-based; conditions: in vivo, read-out: Clast
[19] = Clast in CD-1 mouse at 90 mg/kg, po measured up to 8 hrs by LC-MS/MS analysis; type: ADME, organism-based; conditions: in vivo, read-out: Clast
[20] = AUC (0 to t) in CD-1 mouse at 30 mg/kg, po measured up to 8 hrs by LC-MS/MS analysis; type: ADME, organism-based; set-up: route oral, dose 30 mg/kg, time <=8; conditions: in vivo
[21] = AUC (0 to t) in CD-1 mouse at 90 mg/kg, po measured up to 8 hrs by LC-MS/MS analysis; type: ADME, organism-based; set-up: route oral, dose 90 mg/kg, time <=8; conditions: in vivo
[22] = MRTlast in CD-1 mouse at 10 mg/kg, po measured up to 8 hrs by LC-MS/MS analysis; type: ADME, organism-based; conditions: in vivo
[23] = MRTlast in CD-1 mouse at 30 mg/kg, po measured up to 8 hrs by LC-MS/MS analysis; type: ADME, organism-based; conditions: in vivo
[24] = Solubility of the compound in FaSSIF at 27 degC measured after 24 hrs; type: physicochemical; conditions: simulated gi fluid
[25] = target: T2, Free fatty acid receptor 2 (Homo sapiens, UniProt O15552); experiment: Agonist activity at FFAR2 (unknown origin); type: functional
T2 sequence (O15552 whole entry): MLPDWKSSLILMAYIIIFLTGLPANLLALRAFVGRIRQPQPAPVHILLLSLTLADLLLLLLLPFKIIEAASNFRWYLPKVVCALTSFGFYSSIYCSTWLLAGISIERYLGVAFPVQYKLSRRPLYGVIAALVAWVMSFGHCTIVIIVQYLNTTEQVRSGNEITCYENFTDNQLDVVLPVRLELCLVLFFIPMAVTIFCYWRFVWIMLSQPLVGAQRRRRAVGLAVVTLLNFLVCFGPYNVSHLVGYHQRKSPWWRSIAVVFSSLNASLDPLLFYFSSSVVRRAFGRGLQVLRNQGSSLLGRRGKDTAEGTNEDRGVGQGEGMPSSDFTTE

[26] = target: T3, Free fatty acid receptor 3 (Homo sapiens, UniProt O14843); experiment: Agonist activity at FFAR3 (unknown origin); type: functional
T3 sequence (O14843 whole entry): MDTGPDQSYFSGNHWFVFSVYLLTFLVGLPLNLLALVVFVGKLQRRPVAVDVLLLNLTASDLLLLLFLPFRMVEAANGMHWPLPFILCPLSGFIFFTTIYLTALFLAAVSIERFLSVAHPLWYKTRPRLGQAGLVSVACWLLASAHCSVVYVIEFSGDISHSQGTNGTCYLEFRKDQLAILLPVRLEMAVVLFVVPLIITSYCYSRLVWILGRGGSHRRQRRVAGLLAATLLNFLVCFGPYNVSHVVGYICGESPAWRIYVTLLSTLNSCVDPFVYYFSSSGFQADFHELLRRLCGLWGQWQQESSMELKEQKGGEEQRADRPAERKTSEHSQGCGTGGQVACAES

[27] = target: T4, Free fatty acid receptor 4 (Homo sapiens, UniProt Q5NUL3); experiment: Agonist activity at FFAR4 (unknown origin); type: functional
T4 sequence (Q5NUL3 whole entry): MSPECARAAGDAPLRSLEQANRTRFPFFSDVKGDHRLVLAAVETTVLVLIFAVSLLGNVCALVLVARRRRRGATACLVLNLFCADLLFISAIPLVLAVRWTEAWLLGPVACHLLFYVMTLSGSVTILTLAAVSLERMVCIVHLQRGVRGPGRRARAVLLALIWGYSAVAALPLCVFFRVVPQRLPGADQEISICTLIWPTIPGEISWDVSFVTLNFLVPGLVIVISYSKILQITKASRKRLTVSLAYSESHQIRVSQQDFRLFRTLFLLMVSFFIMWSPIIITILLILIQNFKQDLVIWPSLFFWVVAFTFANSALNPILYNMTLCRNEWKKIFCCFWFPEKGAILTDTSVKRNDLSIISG

Mus musculus = experiment: Antidiabetic activity in C57BL/6J mouse assessed as reduction in plasma glucose level at 30 mg/kg, po pretreated 1 hr before glucose challenge measured up to 120 mins by Oral glucose tolerance test; type: functional; set-up: scale not given: the % may be the effect or the level left; conditions: 2 h

| SMILES | Activity [1] | EC50 [2] [µM] | Activity [3] | Activity (STC1) | Activity (MIN6) | microsomal CLint [4] [µL/min/mg] | microsomal CLint [5] [µL/min/mg] | half-life [6] [h] | half-life [7] [h] | half-life [8] [h] | Tmax [9] [h] | Tmax [10] [h] | Tmax [11] [h] | Cmax [12] [ng/mL] | Cmax [13] [ng/mL] | Cmax [14] [ng/mL] | Tlast [15] [h] | Tlast [16] [h] | concentration at 8 h [17] [ng/mL] | concentration at 8 h [18] [ng/mL] | other results |
| --- | --- | --- | --- | --- | --- | --- | --- | --- | --- | --- | --- | --- | --- | --- | --- | --- | --- | --- | --- | --- | --- |
| Cc1ccc(C)c(-c2cc3cc(CCC(=O)O)ccc3[nH]2)c1 | Active | 7.53 | inactive | Active | inactive | 10.5 | ≤ 4 | 2.4 | 1.33 | 1.36 | 0.33 | 0.33 | 0.44 | 52900 | 24000 | 65000 | 8 | 8 | 1250 | 62 | concentration at 8 h [19]: 2680 ng/mL; AUC(0-t) at 8 h [20]: 33600 ng·h/mL; AUC(0-t) at 8 h [21]: 186000 ng·h/mL; MRT last at 8 h [22]: 2.06 h; MRT last at 8 h [23]: 1.24 h; solubility [24]: Soluble; EC50 [25]: > 25 µM; EC50 [26]: > 25 µM; EC50 [27]: 14.8 µM; Activity (Mus musculus): 14.4% |
| Cc1cc(F)ccc1-c1cc2cc(CCC(=O)O)ccc2[nH]1 | Active | 0.681 | inactive | Active | inactive | ≤ 4 | ≤ 4 | 1.3 | 1.16 | 1.4 | 0.55 | 0.44 | 0.44 | 3740 | 28700 | 10300 | 8 | 8 | 11 | 189 | concentration at 8 h [19]: 63 ng/mL; AUC(0-t) at 8 h [20]: 38700 ng·h/mL; AUC(0-t) at 8 h [21]: 9620 ng·h/mL; MRT last at 8 h [22]: 1.23 h; MRT last at 8 h [23]: 1.34 h; solubility [24]: Soluble; EC50 [25]: > 25 µM; EC50 [26]: > 25 µM; EC50 [27]: > 25 µM; Activity (Mus musculus): 22.9% |
